Values after ≈ are worked out from the molar mass of the structure shown.
Columns and labels:
[1] = MTT cell viability assay (ISO 10993-5); assay type: cell-based, mouse; details: mouse, 24 h, ± SD, read-out: viability of L929 cells
Description: Cell line L929 (ATTC® Catalog No. […] The MTT assay was used according to international standards: ISO 10993-5:2009(E), Biological evaluation of medical devices, Part 5: Tests for in vitro cytotoxicity. […] Then, 1 mg/mL MTT (50 μL/well) was added to each well and incubated at 37 °C, 10% CO2 for 2 h. Mitochondrial dehydrogenases of viable cells reduced the yellowish water-soluble MTT to water-insoluble formazan crystals, which were solubilized with dimethyl sulfoxide (DMSO). The cell culture medium was aspirated cautiously, after which 150 μL DMSO was added to each well and mixed thoroughly. Optical density (OD) was read on the ELISA reader (Multiskan EX, Labsystems, Vienna, VA, USA) at 550 nm. […] All experiments were performed in triplicate.

[2] = test system: T. gondii RH strain tachyzoites; test: [3H]uracil incorporation assay of T. gondii proliferation in L929 host cells; assay type: cell-based, Toxoplasma gondii; details: assay A [3H]uracil incorporation, vs untreated blank
Description: In the next step of our studies, the prepared 1,4-disubstituted thiosemicarbazides (series 1–3) were used to assess the inhibition of T. gondii growth in vitro. For this purpose, intracellular parasites (tachyzoites) of RH strain were incubated with different concentrations of the thiosemicarbazides ranging from 1 to 100 µg/mL. Inhibition of the parasite growth was monitored by measuring the specific incorporation of [^3H]uracil in the parasite’s nucleic acids.
The tachyzoites of T. gondii strain RH – intraspecies type I (ATCC_ Number 50174™) were maintained through passages on female C57BL/6 (H-2^b) and BALB/c (H-2^d) mice with genetically determined high and low susceptibility (respectively) to T. gondii infection (10–12 weeks old). Tachyzoites washed out from the peritoneum cavity were once expanded in vitro on L929 cells.
L929, (2 × 10^4 cells/100 µL/well) were grown in complete medium (IMDM) on 96-well plates. After 24 h incubation, a medium was removed and then T. gondii RH tachyzoites, suspended in culture medium supplemented with 1.0, 5.0, 10.0, 50.0 and 100.0 μg/mL 1,4-disubstituted thiosemicarbazides (1g, 2b, 2m, 3d, 3l) and as a control-sulfadiazine, were added (2 × 10^5 tachyzoites/200 µL/well) to the cell monolayers. After subsequent 48 h incubation 1 µCi/well of [^3H] uracil (Moravek Biochemicals Inc., Brea, CA, USA) was applied to each microculture for further 18–20 h. The amount of the isotope incorporated into the parasite nucleic acid pool, corresponding to the parasite growth, was measured by liquid scintillation counting with 1450 Microbeta Plus Liquid Scintillation Counter (Wallac Oy, Turku, Finland).

[3] = test system: T. gondii RH strain tachyzoites; test: as above; assay type: cell-based; details: Toxoplasma gondii, L929, read-out: IC50 (50% of T. gondii proliferation inhibition in vitro)
topoisomerase IV = molecular target: T1, topoisomerase IV (Staphylococcus aureus, UniProt P0C1S7+P0C1U9); test: S. aureus topoisomerase IV decatenation assay; assay type: biochemical
T1 construct: purchased Inspiralis
T1 sequence (P0C1U9 whole entry): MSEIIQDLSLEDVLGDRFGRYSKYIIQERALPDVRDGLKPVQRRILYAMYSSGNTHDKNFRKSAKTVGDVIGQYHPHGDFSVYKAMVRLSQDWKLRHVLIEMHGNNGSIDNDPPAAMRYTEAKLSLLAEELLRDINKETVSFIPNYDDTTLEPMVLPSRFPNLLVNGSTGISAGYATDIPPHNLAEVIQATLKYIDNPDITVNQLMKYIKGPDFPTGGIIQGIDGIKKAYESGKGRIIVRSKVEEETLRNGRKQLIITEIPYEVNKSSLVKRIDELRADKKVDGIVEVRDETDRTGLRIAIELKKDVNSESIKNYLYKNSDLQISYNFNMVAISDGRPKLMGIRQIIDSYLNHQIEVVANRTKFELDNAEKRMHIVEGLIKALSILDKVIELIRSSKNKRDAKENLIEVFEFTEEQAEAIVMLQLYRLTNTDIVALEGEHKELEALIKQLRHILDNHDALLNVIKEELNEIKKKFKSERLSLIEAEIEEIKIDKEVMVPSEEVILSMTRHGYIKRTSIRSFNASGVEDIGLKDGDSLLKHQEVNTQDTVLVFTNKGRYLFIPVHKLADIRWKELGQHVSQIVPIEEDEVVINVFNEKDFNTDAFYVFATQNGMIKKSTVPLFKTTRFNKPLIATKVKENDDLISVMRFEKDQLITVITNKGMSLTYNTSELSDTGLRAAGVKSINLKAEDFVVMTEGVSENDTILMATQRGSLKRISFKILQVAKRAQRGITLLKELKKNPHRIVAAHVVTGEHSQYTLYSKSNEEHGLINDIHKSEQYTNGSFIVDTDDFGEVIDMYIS
T1 sequence (P0C1S7 whole entry): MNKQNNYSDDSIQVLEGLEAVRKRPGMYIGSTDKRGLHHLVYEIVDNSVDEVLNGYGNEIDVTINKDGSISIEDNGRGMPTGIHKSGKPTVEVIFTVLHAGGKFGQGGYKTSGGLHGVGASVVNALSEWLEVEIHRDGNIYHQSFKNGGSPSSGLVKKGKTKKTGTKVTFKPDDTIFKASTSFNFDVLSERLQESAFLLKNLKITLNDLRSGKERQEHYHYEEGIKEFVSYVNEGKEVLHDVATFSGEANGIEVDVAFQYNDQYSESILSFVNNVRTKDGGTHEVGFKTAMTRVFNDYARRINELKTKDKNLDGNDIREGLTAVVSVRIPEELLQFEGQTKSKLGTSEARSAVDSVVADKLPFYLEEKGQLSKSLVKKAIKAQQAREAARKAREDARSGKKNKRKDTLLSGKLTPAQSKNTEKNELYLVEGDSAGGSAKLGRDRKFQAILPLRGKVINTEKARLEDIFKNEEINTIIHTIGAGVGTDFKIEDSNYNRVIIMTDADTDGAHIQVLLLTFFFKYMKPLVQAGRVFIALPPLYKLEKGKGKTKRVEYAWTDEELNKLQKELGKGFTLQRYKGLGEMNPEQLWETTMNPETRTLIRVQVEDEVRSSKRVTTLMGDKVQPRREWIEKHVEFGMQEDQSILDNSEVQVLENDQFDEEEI
Description: The assays were performed using S. aureus topoisomerase IV decatenation kits (Inspiralis). Interlinked kDNA substrate ([…]) was incubated with 1 unit of topoisomerase IV (Inspiralis), in the dedicated decatenation assay buffer supplied by the manufacturer, in the presence of varying concentrations of the compounds tested. Reactions were carried out at 37 °C for 1 h and then terminated by the addition of equal volume of 2× STOP Buffer (40% sucrose, 100 mM Tris-Cl pH 7.5, 1 mM EDTA, 0.5 mg/mL bromophenol blue) and chloroform/isoamyl alcohol. Samples were vortexed, centrifuged and run through a 15 cm 1% agarose gel in TAE buffer for 1.5 h at 80 V. Gels were stained with ethidium bromide and visualized under UV light. The concentrations of the inhibitor that prevented 50% of the kinetoplast DNA from being converted into decatenated minicircles (IC50 values) were determined by plotting the results obtained from the densytometric analyses of the gel images using Quantity One software (BioRad, Hercules, CA, USA).

DNA gyrase = molecular target: T2, DNA gyrase (Staphylococcus aureus, UniProt P0A0K8+P20831); test: S. aureus gyrase supercoiling assay; assay type: biochemical
T2 construct: purchased Inspiralis
T2 sequence (P0A0K8 whole entry): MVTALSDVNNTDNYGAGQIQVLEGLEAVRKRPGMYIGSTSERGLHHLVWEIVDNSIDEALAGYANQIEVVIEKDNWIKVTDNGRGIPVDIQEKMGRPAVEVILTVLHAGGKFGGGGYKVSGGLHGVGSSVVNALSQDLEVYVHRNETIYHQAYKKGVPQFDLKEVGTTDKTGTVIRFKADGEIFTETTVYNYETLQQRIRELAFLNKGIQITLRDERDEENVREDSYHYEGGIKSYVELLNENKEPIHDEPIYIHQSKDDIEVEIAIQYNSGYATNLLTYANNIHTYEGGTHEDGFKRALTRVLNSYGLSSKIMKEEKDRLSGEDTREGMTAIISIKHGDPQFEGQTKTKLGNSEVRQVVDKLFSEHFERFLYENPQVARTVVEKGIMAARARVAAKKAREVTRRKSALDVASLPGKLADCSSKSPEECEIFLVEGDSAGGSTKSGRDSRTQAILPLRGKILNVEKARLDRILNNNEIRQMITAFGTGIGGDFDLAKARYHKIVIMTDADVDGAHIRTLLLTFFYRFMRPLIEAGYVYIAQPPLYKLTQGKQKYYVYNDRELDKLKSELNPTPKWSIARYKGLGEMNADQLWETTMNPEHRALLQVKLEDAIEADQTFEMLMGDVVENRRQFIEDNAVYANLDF
T2 sequence (P20831 whole entry): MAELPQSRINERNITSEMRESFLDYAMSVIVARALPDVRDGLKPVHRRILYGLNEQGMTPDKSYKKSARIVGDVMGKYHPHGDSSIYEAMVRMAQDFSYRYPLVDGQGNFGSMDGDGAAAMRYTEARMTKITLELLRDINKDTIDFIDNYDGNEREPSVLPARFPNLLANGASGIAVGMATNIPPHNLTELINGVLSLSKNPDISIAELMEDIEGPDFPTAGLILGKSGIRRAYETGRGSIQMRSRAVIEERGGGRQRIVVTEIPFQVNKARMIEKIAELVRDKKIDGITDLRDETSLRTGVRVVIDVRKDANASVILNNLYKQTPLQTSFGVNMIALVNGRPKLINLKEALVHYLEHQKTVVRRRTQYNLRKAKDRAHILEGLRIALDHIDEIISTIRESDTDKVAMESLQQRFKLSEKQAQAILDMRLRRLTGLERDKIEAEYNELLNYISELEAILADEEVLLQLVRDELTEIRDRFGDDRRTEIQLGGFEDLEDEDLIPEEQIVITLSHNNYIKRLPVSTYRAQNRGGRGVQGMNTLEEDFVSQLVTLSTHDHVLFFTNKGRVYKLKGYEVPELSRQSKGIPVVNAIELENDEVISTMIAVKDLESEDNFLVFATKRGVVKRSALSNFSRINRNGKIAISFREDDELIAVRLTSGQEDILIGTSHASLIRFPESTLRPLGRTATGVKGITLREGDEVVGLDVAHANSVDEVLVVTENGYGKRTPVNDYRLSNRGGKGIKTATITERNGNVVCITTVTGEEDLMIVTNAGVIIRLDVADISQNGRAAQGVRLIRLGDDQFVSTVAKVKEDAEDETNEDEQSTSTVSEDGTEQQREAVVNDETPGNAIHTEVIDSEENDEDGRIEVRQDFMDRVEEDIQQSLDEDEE
Description: The assays were performed using S. aureus Gyrase Supercoiling Assay Kits (Inspiralis, Norwich, UK). Briefly, […] pBR322 plasmid DNA ([…]) was incubated with 1 unit of gyrase, in the dedicated supercoiling assay buffer supplied by the manufacturer, in the presence of varying concentrations of the compounds tested. Reactions were carried out at 37 °C for 1 h and then terminated by the addition of equal volume of 2 × STOP Buffer (40% sucrose, 100 mM Tris-Cl pH 7.5, 1 mM EDTA, and 0.5 mg/mL bromophenol blue) and chloroform/isoamyl alcohol. Samples were vortexed, centrifuged and run through a 15 cm 1% agarose gel in TAE buffer (40 mM Trisacetate, 2 mM EDTA) for 3 h at 50 V. Gels were stained with ethidium bromide and visualized under UV light.

[4] = test system: Gram-positive and Gram-negative bacterial strains; test: antibacterial assay (disc diffusion / agar dilution); assay type: cell-based; details: even at high concentrations
From the text: The following microorganisms were used in this study: Staphylococcus aureus (ATCC 25923, ATCC 6538, ATCC 29213, NCTC 4163), Staphylococcus epidermidis ATCC 12228, Bacillus subtilis ATCC 6633, Bacillus cereus ATCC 11778, Micrococcus luteus (ATCC 9341, ATCC 10240), Escherichia coli (ATCC 10538, ATCC 25922, NCTC 8196), […] NCTC 4635, Pseudomonas aeruginosa (ATCC 15442, ATCC 27853, NCTC 6749), and Bordetella bronchiseptica ATCC 4617. Initially, antibacterial activity of thiosemicarbazide derivatives was screened on the basis of growth inhibition zone (giz) utilizing the disc diffusion method, according to the Clinical and Laboratory Standards Institute guidelines. For compounds showing the inhibitory effect on the growth of tested bacteria, monitored as an appearance of giz, the minimal inhibitory concentrations (MICs) were determined using agar dilution method, according to the Clinical and Laboratory Standards Institute guidelines. The minimal inhibitory concentrations (MICs) were defined as the lowest concentration of the compound preventing growth of the tested microorganism. In both methods, recommended Mueller-Hinton II agar medium (Becton Dickinson, Heidelberg, Germany) was used. Solutions containing the tested agents were prepared in methanol or DMSO. Ciprofloxacin was used as control antimicrobial agent.

T. gondii RH strain = test: quantitative real-time PCR (B1 gene) of T. gondii in infected L929 cells; assay type: cell-based, Toxoplasma gondii; details: assay B qRT-PCR, L929 host cells
Description: T. gondii genomic DNA was isolated from the tachyzoites of RH strain with Wizard® SV Genomic DNA Purification System (Promega, Madison, WI, USA) according to the manufacturer’s instruction. The DNA concentration and purity were measured using a NanoPhotometer (Implen, München, Germany), while the integrity of the extracted DNA was tested using an ethidium bromide-stained agarose gel. DNA was used for the detection and quantitationof T. gondii in analyzed samples and it was stored at −20 °C until use.
A quantitative real-time PCR (qRT-PCR) assay, targeting B1 gene was performed to detect and to quantitate T. gondii in analyzed samples (1g, 2b, 2m, 3d, 3l and sulphadiazine) according to the modified protocol of Wahab et al.. […] Amplification was carried out on a 7900HT real-time PCR system (Applied Biosystems, Carlsbad, CA, USA). The reaction mixtures (25 µL) consisted of 1x TaqMan PCR master mix supplemented with ROX (Applied Biosystems), 300 nM probe, 900 nM of each primer and 2 µL of template DNA. For quantification a standard curve was constructed using 10-fold serial dilutions of DNA extracted from a known number of T. gondii. The cycling parameters were: 50 °C for 2 min, initial activation at 95 °C for 10 min, and 45 two-step cycles of 95 °C for 15 s and 60 °C for 1 min. All samples were analyzed in triplicate.

`O=C(NNC(=S)Nc1ccc(F)cc1)c1cccs1` [Compound 1g, 4-(4-fluorophenyl)-1-(thiophen-2-yl)carbonylthiosemicarbazide] showed a viability at 24 h, 1 µg/mL ([1]; 1 µg/mL) of 103 ± 2.69%, a viability at 24 h, 5 µg/mL ([1]; 5 µg/mL) of 99.5 ± 5.16% and a viability at 24 h, 10 µg/mL ([1]; 10 µg/mL) of 97.3 ± 4.98%. For the same molecule, the viability at 24 h, 50 µg/mL ([1]; 50 µg/mL) was 79 ± 2.89%, the viability at 24 h, 100 µg/mL ([1]; 100 µg/mL) was 67 ± 11.4% and the viability at 24 h, 500 µg/mL ([1]; 500 µg/mL) was 39.8 ± 5.83%. For the same molecule, the “intensity of T. gondii proliferation” value ([2]; 1 µg/mL) was 96.14 ± 14.54%, the “intensity of T. gondii proliferation” value ([2]; 5 µg/mL) was 74.94 ± 7.00 % and the “intensity of T. gondii proliferation” value ([2]; 10 µg/mL) was 44.71 ± 16.60 %. The “intensity of T. gondii proliferation” value ([2]; 50 µg/mL) was 12.62 ± 4.78 %, the IC50 [3] was 33.2 µg/mL (≈ 112 µM) and the “inhibitory effect on topoisomerase IV” value (topoisomerase IV) was “No inhibitory effect”. For the same molecule, the “inhibitory effect on DNA gyrase” value (DNA gyrase) was “No inhibitory effect”, the “growth-inhibiting effect on bacterial strains” value [4] was “no growth-inhibiting effect” and the “intensity of T. gondii proliferation” value (T. gondii RH strain; 10 µg/mL) was 61.01 ± 11.23 %. The “intensity of T. gondii proliferation” value (T. gondii RH strain; 50 µg/mL) was 5.00 ± 2.56 %.
